± gives the uncertainty stated by the source.
Test: TIMS collision cross section in N2 (TIMS CCS N2); higher = larger gas-phase ion size
Conditions: drift gas: N2 (99.4% N2, 0.6% O2), calibration: Stow et al. 2017 values for Agilent ESI-L Low Concentration Tune Mix, ionization: negative ESI
Protocol: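 Authentic plant natural product standards (10-50 ppm in 80% methanol) were analysed by UHPLC (BEH C18, 60 °C) coupled to a Bruker timsTOF Pro in negative ESI with N2 drift gas. TIMS collision cross sections were computed from mobility peak apices after calibration with Agilent Tune Mix using Stow et al. reference values. Values are the average of triplicate runs on different days, reported per annotated ion species (deprotonated ion, adducts, dimer, oxidized ion).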

Row | TIMS collision cross section in N2 (ion species: [M-H]-) | SMILES | other results
1 | 185.44 ± 0.18 Å² | COc1ccc(-c2cc(=O)c3c(O)c(OC)c(O)cc3o2)cc1OC [Eupatilin] | TIMS collision cross section in N2 (ion species: [M-H+Na+HCO2H]-): 201.78 ± 0.15 Å²
2 | 164.55 ± 0.2 Å² | O=c1c(O)c(-c2cc(O)c(O)c(O)c2)oc2cc(O)ccc12 [3,7,3',4',5'-Pentrahydroxyflavone (robinetin)] | TIMS collision cross section in N2 (ion species: [M-3H]-): 160.55 ± 0.095 Å²
3 | 194.21 ± 0.22 Å² | O=C(CCc1ccc(O)c(O)c1)c1c(O)cc(O)c([C@@H]2O[C@H](CO)[C@@H](O)[C@H](O)[C@H]2O)c1O [Aspalathin] | TIMS collision cross section in N2 (ion species: [2M-H]-): 274.03 ± 0.72 Å²; TIMS collision cross section in N2 (ion species: [M-3H]-): 195.17 ± 0.1 Å²
4 | 161.08 ± 0.12 Å² | O=c1c(O)c(-c2ccc(O)cc2)oc2cc(O)cc(O)c12 [Kaempferol] | TIMS collision cross section in N2 (ion species: [2M-H]-): 234.8 ± 0.14 Å²
5 | 182.82 ± 0.12 Å² | COc1ccc(-c2cc(=O)c3c(O)c(OC)c(O)c(OC)c3o2)cc1 [nevadensin] | TIMS collision cross section in N2 (ion species: [M-H+Na+HCO2H]-): 199.45 ± 0.091 Å²
6 | 162.69 ± 0.1 Å² | CCCCCCCCCCCCCC(=O)O [Myristic acid] | 
7 | 159.89 ± 0.26 Å² | O=c1c(-c2ccc(O)cc2)coc2cc(O)cc(O)c12 [Genistein] | TIMS collision cross section in N2 (ion species: [2M-H]-): 249.93 ± 0.16 Å²
8 | 190.48 ± 0.09 Å² | COc1ccc(-c2cc(=O)c3c(O)c(OC)c(O)c(OC)c3o2)cc1OC [Hymenoxin] | TIMS collision cross section in N2 (ion species: [M-H+Na+HCO2H]-): 207.1 ± 0.28 Å²
9 | 141.26 ± 0.044 Å² | COc1cc(/C=C/C(=O)O)cc(O)c1O [5-Hydroxyferulic acid] | 
10 | 167.53 ± 0.27 Å² | O=C1CC(c2ccc(O)c(O)c2)Oc2cc(O)c(O)cc21 (configuration not stated) [6,7,3',4'-Tetrahydroxyflavanone] | TIMS collision cross section in N2 (ion species: [M-3H]-): 161.92 ± 0.36 Å²
11 | 190.83 ± 0.34 Å² | COc1cc(O)c2c(=O)cc(-c3cc(OC)c(OC)c(OC)c3)oc2c1 [Corymbosin] | 
12 |  | COc1ccc(-c2coc3cc(O[C@@H]4O[C@H](CO)[C@@H](O)[C@H](O)[C@H]4O)ccc3c2=O)cc1 [Ononin (Formononetin 7-O-glucoside)] | TIMS collision cross section in N2 (ion species: [M-H+HCO2H]-): 223.35 ± 0.14 Å²
13 | 236.98 ± 0.087 Å² | O=c1cc(-c2ccc(O)c(O[C@@H]3OC(CO)[C@@H](O)[C@@H](O)C3O)c2)oc2cc(O[C@@H]3OC(CO)[C@@H](O)[C@@H](O)C3O)cc(O)c12 (some centres not stated) [Luteolin-7,3'-di-O-glucoside] | 
14 | 159.52 ± 0.35 Å² | O=c1cc(-c2ccc(O)cc2)oc2cc(O)c(O)c(O)c12 [Scutellarein] | TIMS collision cross section in N2 (ion species: [M-3H]-): 156.37 ± 0.57 Å²
15 | 279.43 ± 0.38 Å² | CC1(C)[C@@H](O[C@H]2O[C@H](C(=O)O)[C@@H](O)[C@H](O)[C@H]2O[C@@H]2O[C@H](C(=O)O)[C@@H](O)[C@H](O)[C@H]2O)CC[C@]2(C)[C@H]3C(=O)C=C4[C@@H]5C[C@@](C)(C(=O)O)CC[C@]5(C)CC[C@@]4(C)[C@]3(C)CC[C@@H]12 [Glycyrrhizic acid] | 
16 | 225.09 ± 0.24 Å² | CC1(C)CC[C@]2(C(=O)O)CC[C@]3(C)C(=CC[C@@H]4[C@@]5(C)C[C@H](O)[C@H](O)[C@@](C)(CO)[C@@H]5CC[C@]43C)[C@@H]2C1 [bayogenin] | TIMS collision cross section in N2 (ion species: [M-H+HCO2H]-): 234.73 ± 0.27 Å²
17 | 233.82 ± 0.23 Å² | COc1ccc(-c2cc(=O)c3c(O)cc(O[C@@H]4O[C@H](CO[C@@H]5O[C@@H](C)[C@H](O)[C@@H](O)[C@H]5O)[C@@H](O)[C@H](O)[C@H]4O)cc3o2)cc1O [Diosmin] | TIMS collision cross section in N2 (ion species: [M-H+Na+HCO2H]-): 247.05 ± 0.28 Å²
18 | 165.97 ± 0.11 Å² | O=C1C[C@@H](c2ccc(O)c(O)c2)Oc2cc(O)cc(O)c21 [Eriodictyol] | 
19 | 226.82 ± 0.1 Å² | COc1ccc([C@@H]2CC(=O)c3c(O)cc(O[C@@H]4O[C@H](CO)[C@@H](O)[C@H](O)[C@H]4O[C@@H]4O[C@@H](C)[C@H](O)[C@@H](O)[C@H]4O)cc3O2)cc1O [Neohesperidin] | 
20 | 206.74 ± 0.14 Å² | O=c1cc(-c2ccc(O)cc2)oc2cc(OC3O[C@H](CO)[C@@H](O)[C@H](O)[C@H]3O)cc(O)c12 (some centres not stated) [Apigenin-7-O-glucoside (apigetrin)] | TIMS collision cross section in N2 (ion species: [M-H+Na+HCO2H]-): 228.65 ± 0.32 Å²
21 | 165.83 ± 0.053 Å² | COc1ccc(O)c2c1C(=O)CC(c1ccccc1)O2 (configuration not stated) [8-Hydroxy-5-methoxyflavanone] | 
22 | 162.79 ± 0.25 Å² | COc1ccc(-c2cc3ccc(O)cc3oc2=O)cc1 [7-hydroxy 3(4- methoxyphenyl) coumarin] | 
23 | 218.58 ± 0.23 Å² | COc1cc2oc(-c3ccc(O)cc3O)c(CC=C(C)C)c(=O)c2c(O)c1/C=C/C(C)C [Artocarpin] | TIMS collision cross section in N2 (ion species: [M-H+Na+HCO2H]-): 229.53 ± 0.64 Å²

Row | TIMS collision cross section in N2 (ion species: [M-H]-) | SMILES | other results
24 | 163.71 ± 0.025 Å² | COc1ccc2c(c1)OC(c1ccccc1)CC2=O (configuration not stated) [7-Methoxyflavanone] | 
25 | 175.55 ± 0.29 Å² | COc1ccc(C2CC(=O)c3c(O)cc(OC)cc3O2)cc1 (configuration not stated) [7,4'-Dimethoxy-5-hydroxyflavanone] | TIMS collision cross section in N2 (ion species: [M-H+Na+HCO2H]-): 194.46 ± 0.47 Å²
26 | 155.75 ± 0.042 Å² | O=c1oc2cc(O)ccc2c2oc3cc(O)ccc3c12 [Coumestrol] | TIMS collision cross section in N2 (ion species: [2M-H]-): 245.05 ± 0.43 Å²
27 | 220.34 ± 0.4 Å² | C[C@H]1[C@H](C)CC[C@]2(C(=O)O)CC[C@]3(C)C(=CC[C@@H]4[C@@]5(C)C[C@@H](O)[C@H](O)C(C)(C)[C@@H]5CC[C@]43C)[C@H]12 [Corosolic acid] | TIMS collision cross section in N2 (ion species: [M-H+Na+HCO2H]-): 231.55 ± 0.4 Å²
28 | 166.87 ± 0.13 Å² | COc1cc2c(=O)c(-c3ccc(O)cc3)coc2cc1O [Glycitein] | TIMS collision cross section in N2 (ion species: [M-H+Na+HCO2H]-): 184.69 ± 0.23 Å²
29 | 157.47 ± 0.15 Å² | O=c1cc(-c2ccc(O)cc2)oc2cc(O)cc(O)c12 [Apigenin] | TIMS collision cross section in N2 (ion species: [2M-H]-): 238.72 ± 0.12 Å²
30 | 162.38 ± 0.017 Å² | O=c1c(O)c(-c2ccc(O)c(O)c2)oc2cc(O)ccc12 [Fisetin] | TIMS collision cross section in N2 (ion species: [M-3H]-): 157.48 ± 0.065 Å²
31 | 200.44 ± 0.33 Å² | O=c1c(O[C@@H]2O[C@H](CO)[C@@H](O)[C@H](O)[C@H]2O)c(-c2ccc(O)cc2)oc2cc(O)cc(O)c12 [kaempferol-3-O-glucoside] | TIMS collision cross section in N2 (ion species: [2M-H]-): 279.93 ± 1.2 Å²; TIMS collision cross section in N2 (ion species: [M-H+Na+HCO2H]-): 222.09 ± 0.65 Å²
32 | 182.42 ± 0.24 Å² | COc1cc(OC)c(C(=O)C=Cc2ccc(O)cc2)c(OC)c1 [4-Hydroxy-2',4',6'-trimethoxychalcone (flavokawain A)] | 
33 | 168.54 ± 0.27 Å² | COc1cc(O)c2c(c1)O[C@H](c1ccc(O)cc1)CC2=O [sakuranetin] | 
34 | 209.17 ± 0.14 Å² | O=c1c(O)c(-c2ccc(O)cc2)oc2cc(OC3OC(CO)C(O)C(O)C3O)cc(O)c12 (configuration not stated) [kaempferol-7-O-glucoside] | TIMS collision cross section in N2 (ion species: [2M-H]-): 283.76 ± 0.75 Å²; TIMS collision cross section in N2 (ion species: [M-H+Na+HCO2H]-): 230.04 ± 0.3 Å²
35 | 172.79 ± 0.23 Å² | COc1ccc([C@@H]2CC(=O)c3c(O)cc(O)cc3O2)cc1O [Hesperetin] | TIMS collision cross section in N2 (ion species: [2M-H]-): 219.76 ± 0.28 Å²
36 | 226.23 ± 0.27 Å² | CC1(C)CC[C@]2(C(=O)O)CC[C@]3(C)C(=CC[C@@H]4[C@@]5(C)C[C@H](O)[C@H](O)[C@@](C)(C(=O)O)[C@@H]5CC[C@]43C)[C@@H]2C1 [medicagenic acid] | TIMS collision cross section in N2 (ion species: [M-H+Na+HCO2H]-): 243.47 ± 0.081 Å²
37 | 222.65 ± 0.35 Å² | C[C@H]1[C@H](C)CC[C@]2(C(=O)O)CC[C@]3(C)C(=CC[C@@H]4[C@@]5(C)C[C@@H](O)[C@H](O)[C@@](C)(CO)[C@@H]5CC[C@]43C)[C@H]12 [Asiatic acid] | 
38 | 164.38 ± 0.046 Å² | COc1ccc(C=CC(=O)c2ccccc2O)cc1 [2'-Hydroxy-4-methoxychalcone] | 
39 | 160.69 ± 0.18 Å² | O=c1cc(-c2ccc(O)c(O)c2)oc2cc(O)cc(O)c12 [Luteolin] | TIMS collision cross section in N2 (ion species: [2M-H]-): 234.87 ± 0.19 Å²
40 | 152.04 ± 0.28 Å² | O=c1c(O)c(-c2ccccc2)oc2ccccc12 [3-Hydroxyflavone] | TIMS collision cross section in N2 (ion species: [M-H+Na+HCO2H]-): 172.34 ± 0.36 Å²
41 | 167.04 ± 0.26 Å² | COc1ccc(-c2oc3cc(O)cc(O)c3c(=O)c2O)cc1 [Kaempferide] | 
42 | 264.84 ± 0.64 Å² | O=C(N[C@@H](CSCc1ccccc1)C(=O)O)OCc1ccccc1 [S-Benzyl-N-carbobenzyloxy-L-cysteine] | 
43 | 148.27 ± 0.07 Å² | COc1cc(C=CC(=O)O)cc(OC)c1O [Sinapic acid] | 
44 | 174.45 ± 0.021 Å² | CCCCCCCCCCCCCCCCC(=O)O [Heptadecanoic acid] | TIMS collision cross section in N2 (ion species: [2M-H]-): 259.04 ± 0.54 Å²
45 | 187.14 ± 0.21 Å² | CC(C)=CCC(=O)C1(O)C(O)=C(C(=O)CC(C)C)C(=O)C1CC=C(C)C (configuration not stated) [Isohumulone] | 
46 |  | COc1ccc(-c2cc(=O)c3ccc(O)cc3o2)cc1 [Pratol] | TIMS collision cross section in N2 (ion species: [2M-H]-): 234 ± 0.056 Å²

Row | SMILES | TIMS collision cross section in N2 (ion species: [M-H]-) | other results
47 | CC(C)=CCc1c(O)cc2c(c1O)C(=O)C[C@@H](c1ccc(O)cc1)O2 [6-prenylnaringenin] | 183.64 ± 0.61 Å² | TIMS collision cross section in N2 (ion species: [2M-H]-): 235.03 ± 0.42 Å²
